The values that follow come from patent publication US20220380368A1, “SPIROCYCLIC ANDROGEN RECEPTOR PROTEIN DEGRADERS” (THE REGENTS OF THE UNIVERSITY OF MICHIGAN, priority 2019, published 2022).

The structures appear in SMILES notation. Substitutions are numbered along the chain they refer to. Read-outs that look alike come from different tables or passages of the source.

Data set [1] concerns the target T1, AR protein (Homo sapiens, UniProt P10275).
T1 construct: endogenous in cells; host or cells: VCaP
T1 sequence (P10275 1-920): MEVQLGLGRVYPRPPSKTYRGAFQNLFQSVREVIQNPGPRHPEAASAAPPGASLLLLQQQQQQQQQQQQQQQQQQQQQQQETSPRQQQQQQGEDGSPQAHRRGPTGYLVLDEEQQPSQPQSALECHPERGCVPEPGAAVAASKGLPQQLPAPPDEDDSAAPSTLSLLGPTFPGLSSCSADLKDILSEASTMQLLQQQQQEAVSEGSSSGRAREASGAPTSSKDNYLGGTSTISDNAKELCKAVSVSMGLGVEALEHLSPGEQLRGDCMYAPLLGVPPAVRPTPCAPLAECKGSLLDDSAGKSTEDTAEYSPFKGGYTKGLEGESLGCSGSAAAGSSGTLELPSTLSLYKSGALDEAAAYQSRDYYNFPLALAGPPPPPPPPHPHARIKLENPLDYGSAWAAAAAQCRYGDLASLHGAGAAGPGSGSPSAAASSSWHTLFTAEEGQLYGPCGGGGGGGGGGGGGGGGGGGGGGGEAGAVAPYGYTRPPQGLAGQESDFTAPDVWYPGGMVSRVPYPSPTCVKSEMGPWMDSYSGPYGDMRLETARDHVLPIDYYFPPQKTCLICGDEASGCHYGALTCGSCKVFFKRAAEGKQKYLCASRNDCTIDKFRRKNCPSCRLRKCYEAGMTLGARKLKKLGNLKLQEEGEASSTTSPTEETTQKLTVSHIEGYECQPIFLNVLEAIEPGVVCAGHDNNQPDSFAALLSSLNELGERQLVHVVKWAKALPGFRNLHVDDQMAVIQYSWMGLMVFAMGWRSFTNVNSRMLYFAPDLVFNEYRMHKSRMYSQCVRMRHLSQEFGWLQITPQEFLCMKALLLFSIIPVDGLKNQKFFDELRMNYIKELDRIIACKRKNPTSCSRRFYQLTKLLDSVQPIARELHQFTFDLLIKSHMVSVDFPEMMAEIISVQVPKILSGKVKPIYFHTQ
As to the kind of experiment: Western blotting analysis of AR protein levels in VCaP cells, band quantification, DC50/DC90. The class given is cell-based. An outline of the steps: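 VCaP cells treated with compounds, lysed in RIPA and probed for AR by Western blot with GAPDH loading control. Band intensities normalised to GAPDH; DC50 from curve fit, DC90 calculated from DC50 and Hill slope via four-parameter equation.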

Data set [2] has as its target T2, AR protein (Homo sapiens, UniProt P10275, T878A).
T2 construct: endogenous in cells; host or cells: LNCaP
T2 sequence (P10275 1-920 T878A): T1 sequence (P10275 1-920) with T878A
As to the kind of experiment: Western blotting analysis of AR protein levels in LNCaP cells, band quantification, DC50/DC90. The class given is cell-based. The following applies: prostate cancer LNCaP cells, 24 h treatment. The protocol: (§1) The appropriate cell line, e.g., prostate cancer LNCaP, Vcap, or 22RV1 cell line, was treated with Compounds of the Disclosure as indicated. The treated cells were lysed with RIPA buffer. The AR level in the cell lysates was examined by western blotting and a specific AR antibody (ab194196, Abcam, Cambridge, Mass. 02139) with concentration of 1:20,000. GAPDH was used as a loading control.
(§2) Bands were quantified with ImageJ software. The relative numbers of each band obtained from normalization with its corresponding GAPDH level were compared with Prism 8 software. The DC50 values were produced from Prism 8, and the DC90 values were calculated with an equation=Bottom+(Top−Bottom)/(1+10^((Log EC50−X)*HillSlope) based on DC50 and Hillslope values.

Data set [3] concerns AR protein. As to the kind of experiment: Western blotting analysis of AR protein levels in 22RV1 cells, band quantification, DC50/DC90. The class given is cell-based. The following applies: prostate cancer 22RV1 cells, 24 h treatment. Here is the method: as §1, §2
The nature of data set [4]: Mouse PK studies after oral and IV dosing. The class given is in vivo. Particulars: for F: PO 3 mg/kg vs IV 1 mg/kg; for AUC(0-t) / clearance / half-life / Vd / Cmax / Tmax: in vivo; for clearance: read-out: IV Cl (converted); for Vd: read-out: IV VSS. Here is the method:
The pharmacokinetics of representative Compounds of the Disclosure were determined after oral and IV dosing at the concentrations indicated in mouse (Table 7). […] The vehicles used in these studies are either (i) 10% PEG400+90% PBS (adjusted to pH to 8.0 by 0.5 N NaOH); or (ii) 100% PEG200.

[5] abbreviates: calculated from DC50 and Hillslope.
Where [6] appears, read: VCaP cells, Table 6, read-out: VCaP DC50.
Setting [7] is: iv, 1 mg/kg, IV, dose 1 mg/kg, read-out: IV AUC(0 − t).
Setting [8] is: iv, 1 mg/kg, IV, dose 1 mg/kg, read-out: IV T1/2 (converted).
Setting [9] is: po, 3 mg/kg, PO, dose 3 mg/kg, read-out: PO AUC(0 − t).
Setting [10] is: po, 3 mg/kg, PO, dose 3 mg/kg, read-out: PO T1/2 (converted).

With `C[C@H]1CC2(CCN(c3ccc(C(=O)N4CCN(C5CN(c6ccc7c(c6)C(=O)N(C6CCC(=O)NC6=O)C7=O)C5)CC4)cc3)CC2)CN1c1ccc(C#N)c(Cl)c1` (stereo partly drawn) [Cpd. No. 293, 2-chloro-4-((3S)-8-(4-(4-(1-(2-(2,6-dioxopiperidin-3-yl)-1,3-dioxoisoindolin-5-yl)azetidin-3-yl)piperazine-1-carbonyl)phenyl)-3-methyl-2,8-diazaspiro[4.5]decan-2-yl)benzonitrile], the DC50 worked out at 0.031 nM at AR protein [1] (prostate cancer Vcap cells, 24 h treatment); 0.3 nM at AR protein [2]; 0.14 nM with AR protein [3]. The DC90 at AR protein [1] (prostate cancer Vcap cells, 24 h treatment, calculated from DC50 and Hillslope) is recorded as 0.41 nM; on AR protein [2] (setting [5]), 0.33 nM; with AR protein [3] (setting [5]), 0.23 nM.

Consider `C[C@H]1CC2(CCN(c3ccc(C(=O)N4CCN(C5CCN(c6ccc7c(c6)C(=O)N(C6CCC(=O)NC6=O)C7=O)CC5)CC4)cc3F)CC2)CN1c1ccc(C#N)c(Cl)c1` (stereo partly drawn) [Cpd. No. 521, 2-chloro-4-((3S)-8-(4-(4-(1-(2-(2,6-dioxopiperidin-3-yl)-1,3-dioxoisoindolin-5-yl)piperidin-4-yl)piperazine-1-carbonyl)-2-fluorophenyl)-3-methyl-2,8-diazaspiro[4.5]decan-2-yl)benzonitrile], for which, on AR protein [1] (setting [6]), the DC50 is less than 1 nM. In addition, the F in data set [4] is listed as 30%. Also, the area under the curve AUC(0-t) in data set [4] (setting [7]) was 2990 ng·h/mL. In data set [4] (iv, 1 mg/kg, IV, dose 1 mg/kg), the clearance is 5 mL/min/kg and the Vd amounted to 3.1 L/kg. Besides, in data set [4] (setting [8]), the half-life was 8.2 h. In data set [4] (po, 3 mg/kg), the highest concentration (Cmax) came out at 344 ng/mL and the Tmax worked out at 1.7 h. Besides, in data set [4] (setting [9]), the AUC(0-t) amounted to 2730 ng·h/mL. In addition, the half-life in data set [4] (setting [10]) is 7 h.

Consider `C[C@H]1CC2(CCN(c3ccc(C(=O)N4CCN(C5CCN(c6ccc7c(c6)C(=O)N(C6CCC(=O)NC6=O)C7=O)CC5)CC4)cc3F)CC2)CN1c1ccc(C#N)c(Cl)c1` (stereo partly drawn) [Cpd. No. 522, 2-chloro-4-((3S)-8-(4-(4-(1-(2-(2,6-dioxopiperidin-3-yl)-1,3-dioxoisoindolin-5-yl)piperidin-4-yl)piperazine-1-carbonyl)-2-fluorophenyl)-3-methyl-2,8-diazaspiro[4.5]decan-2-yl)benzonitrile], for which the DC50 at AR protein [1] (setting [6]) is less than 1 nM. Moreover, in data set [4] (IV, dose 1 mg/kg), the “IV AUC(0 − t)” value was determined as 1723 ng·h/mL, the “IV Cl” value stood at 8.3 mL/min/kg, the “IV T1/2” value stood at 8.6 h and the “IV VSS” value came out at 4.6 L/kg. In addition, the F in data set [4] is 33%. In data set [4] (PO, dose 3 mg/kg), the “PO AUC(0 − t)” value worked out at 1731 ng·h/mL, the “PO Cmax” value amounted to 196 ng/mL, the “PO T1/2” value is 6.0 h and the “PO Tmax” value is 2.0 h.

Turning to `C[C@H]1CC2(CCN(c3ccc(C(=O)N4CCN(CC5CN(c6ccc7c(c6)C(=O)N(C6CCC(=O)NC6=O)C7=O)C5)CC4)cc3F)CC2)CN1c1ccc(C#N)c(Cl)c1` (stereo partly drawn) [Cpd. No. 528, 2-chloro-4-((3S)-8-(4-(4-((1-(2-(2,6-dioxopiperidin-3-yl)-1,3-dioxoisoindolin-5-yl)azetidin-3-yl)methyl)piperazine-1-carbonyl)-2-fluorophenyl)-3-methyl-2,8-diazaspiro[4.5]decan-2-yl)benzonitrile], at AR protein [1] (setting [6]), the DC50 was less than 1 nM. Besides, in data set [4], the F turned out to be 33%. Also, the area under the curve AUC(0-t) in data set [4] (setting [7]) worked out at 1710 ng·h/mL. Moreover, in data set [4] (iv, 1 mg/kg, IV, dose 1 mg/kg), the clearance was 8.33 mL/min/kg and the Vd is 5.7 L/kg. Moreover, the half-life in data set [4] (setting [8]) was 8.9 h. Moreover, in data set [4] (po, 3 mg/kg), the Cmax was found to be 149 ng/mL and the Tmax is 1.7 h. For the same molecule, in data set [4] (setting [9]), the exposure AUC(0-t) worked out at 1680 ng·h/mL. For the same molecule, the half-life in data set [4] (setting [10]) is 8.8 h.

Regarding `C[C@H]1CC2(CCN(c3ccc(C(=O)N4CCN(CC5CN(c6ccc7c(c6)C(=O)N(C6CCC(=O)NC6=O)C7=O)C5)CC4)c(F)c3)CC2)CN1c1ccc(C#N)c(Cl)c1` (stereo partly drawn) [Cpd. No. 529, 2-chloro-4-((3S)-8-(4-(4-((1-(2-(2,6-dioxopiperidin-3-yl)-1,3-dioxoisoindolin-5-yl)azetidin-3-yl)methyl)piperazine-1-carbonyl)-3-fluorophenyl)-3-methyl-2,8-diazaspiro[4.5]decan-2-yl)benzonitrile], on AR protein [1] (setting [6]), the DC50 lay in the range of 1 to 10 nM. The molecule also had a F in data set [4] of 45%. In addition, the AUC(0-t) in data set [4] (setting [7]) came to 5130 ng·h/mL. For the same molecule, in data set [4] (iv, 1 mg/kg, IV, dose 1 mg/kg), the clearance was 3.33 mL/min/kg and the Vd worked out at 2.2 L/kg. Further, the half-life in data set [4] (setting [8]) is 10.2 h. In data set [4] (po, 3 mg/kg), the Cmax amounted to 507 ng/mL and the Tmax was determined as 3.3 h. Also, the area under the curve AUC(0-t) in data set [4] (setting [9]) turned out to be 6920 ng·h/mL. Also, in data set [4] (setting [10]), the half-life is 8.5 h.
